Experimental data published in publication PMC10700596 (Nature Communications, 2023).
“And” between values parts separate entries of the source, which are not always exact repeats. Equal entries are not always repeated.

Columns and labels:
mice = type: in vivo
Method: For all behavioral tests, the experimenter was always blind to treatment. Animals were habituated for 60 min in Plexiglas cylinders before testing. […] For 10 mg/kg doses, compounds were prepared in 2.5 mg/ml solutions of which 100 µL were administered to mice (average weight 25 g). For 30 mg/kg doses, 7.5 mg/ml solutions were prepared. […] Hindpaw mechanical thresholds were determined with von Frey filaments using the up-down method, 60 min after administration of the EP4R antagonists (i.p. or via oral gavage). For the ambulatory (rotarod) test, mice were first trained on an accelerating rotating rod, 3 times for 5 minutes, before testing with any compound. On the test day, latency to fall from the rod was measured 1 h after injection of the compound. The cutoff was 300 s. Statistical tests were performed with GraphPad Prism 9.0 (GraphPad Software Inc., San Diego).

IGF1R = IGF1R (Homo sapiens, UniProt P08069); experiment: biochemical; type: binding; settings: 10000 nM; read-out: Percent Control
Description: (§1) Source data are provided as a Source Data file.

KIT = KIT (Homo sapiens, UniProt P10721); experiment: biochemical; type: binding; settings: 10000 nM; read-out: Percent Control
Description: as §1

KIT(D816V) = KIT(D816V) (Homo sapiens, UniProt P10721, D816V); experiment: biochemical; type: binding; settings: 10000 nM; read-out: Percent Control
Description: as §1

KIT(V559D,T670I) = KIT(V559D,T670I) (Homo sapiens, UniProt P10721, T670I/V559D); experiment: biochemical; type: binding; settings: 10000 nM; read-out: Percent Control
Description: as §1

LKB1 = LKB1 (Homo sapiens, UniProt Q15831); experiment: biochemical; type: binding; settings: 10000 nM; read-out: Percent Control
Description: as §1

MAP3K4 = MAP3K4 (Homo sapiens, UniProt Q9Y6R4); experiment: biochemical; type: binding; settings: 10000 nM; read-out: Percent Control
Description: as §1

MAPKAPK2 = MAPKAPK2 (Homo sapiens, UniProt P49137); experiment: biochemical; type: binding; settings: 10000 nM; read-out: Percent Control
Description: as §1

MARK3 = MARK3 (Homo sapiens, UniProt P27448); experiment: biochemical; type: binding; settings: 10000 nM; read-out: Percent Control
Description: as §1

MEK1 = MEK1 (Homo sapiens, UniProt Q02750); experiment: biochemical; type: binding; settings: 10000 nM; read-out: Percent Control
Description: as §1

MEK2 = MEK2 (Homo sapiens, UniProt P36507); experiment: biochemical; type: binding; settings: 10000 nM; read-out: Percent Control
Description: as §1

MKNK1 = MKNK1 (Homo sapiens, UniProt Q9BUB5); experiment: biochemical; type: binding; settings: 10000 nM; read-out: Percent Control
Description: as §1

MKNK2 = MKNK2 (Homo sapiens, UniProt Q9HBH9); experiment: biochemical; type: binding; settings: 10000 nM; read-out: Percent Control
Description: as §1

MLK1 = MLK1 (Homo sapiens, UniProt P80192); experiment: biochemical; type: binding; settings: 10000 nM; read-out: Percent Control
Description: as §1

PAK1 = PAK1 (Homo sapiens, UniProt Q13153); experiment: biochemical; type: binding; settings: 10000 nM; read-out: Percent Control
Description: as §1

PAK2 = PAK2 (Homo sapiens, UniProt Q13177); experiment: biochemical; type: binding; settings: 10000 nM; read-out: Percent Control
Description: as §1

PAK4 = PAK4 (Homo sapiens, UniProt O96013); experiment: biochemical; type: binding; settings: 10000 nM; read-out: Percent Control
Description: as §1

PCTK1 = PCTK1 (Homo sapiens, UniProt Q00536); experiment: biochemical; type: binding; settings: 10000 nM; read-out: Percent Control
Description: as §1

PDGFRA = PDGFRA (Homo sapiens, UniProt P16234); experiment: biochemical; type: binding; settings: 10000 nM; read-out: Percent Control
Description: as §1

PDGFRB = PDGFRB (Homo sapiens, UniProt P09619); experiment: biochemical; type: binding; settings: 10000 nM; read-out: Percent Control
Description: as §1

PIK3C2B = PIK3C2B (Homo sapiens, UniProt O00750); experiment: biochemical; type: binding; settings: 10000 nM; read-out: Percent Control
Description: as §1

PIM2 = PIM2 (Homo sapiens, UniProt Q9P1W9); experiment: biochemical; type: binding; settings: 10000 nM; read-out: Percent Control
Description: as §1

PIM3 = PIM3 (Homo sapiens, UniProt Q86V86); experiment: biochemical; type: binding; settings: 10000 nM; read-out: Percent Control
Description: as §1

PKAC-alpha = PKAC-alpha (Homo sapiens, UniProt P17612); experiment: biochemical; type: binding; settings: 10000 nM; read-out: Percent Control
Description: as §1

PLK1 = PLK1 (Homo sapiens, UniProt P53350); experiment: biochemical; type: binding; settings: 10000 nM; read-out: Percent Control
Description: as §1

PLK3 = PLK3 (Homo sapiens, UniProt Q9H4B4); experiment: biochemical; type: binding; settings: 10000 nM; read-out: Percent Control
Description: as §1

PLK4 = PLK4 (Homo sapiens, UniProt O00444); experiment: biochemical; type: binding; settings: 10000 nM; read-out: Percent Control
Description: as §1

RAF1 = RAF1 (Homo sapiens, UniProt P04049); experiment: biochemical; type: binding; settings: 10000 nM; read-out: Percent Control
Description: as §1

RET = RET (Homo sapiens, UniProt P07949); experiment: biochemical; type: binding; settings: 10000 nM; read-out: Percent Control
Description: as §1

RIOK2 = RIOK2 (Homo sapiens, UniProt Q9BVS4); experiment: biochemical; type: binding; settings: 10000 nM; read-out: Percent Control
Description: as §1

VEGFR2 = VEGFR2 (Homo sapiens, UniProt P35968); experiment: biochemical; type: binding; settings: 10000 nM; read-out: Percent Control
Description: as §1

p38-beta = p38-beta (Homo sapiens, UniProt Q15759); experiment: biochemical; type: binding; settings: 10000 nM; read-out: Percent Control
Description: as §1

Chain of MLK1 (P80192 whole entry): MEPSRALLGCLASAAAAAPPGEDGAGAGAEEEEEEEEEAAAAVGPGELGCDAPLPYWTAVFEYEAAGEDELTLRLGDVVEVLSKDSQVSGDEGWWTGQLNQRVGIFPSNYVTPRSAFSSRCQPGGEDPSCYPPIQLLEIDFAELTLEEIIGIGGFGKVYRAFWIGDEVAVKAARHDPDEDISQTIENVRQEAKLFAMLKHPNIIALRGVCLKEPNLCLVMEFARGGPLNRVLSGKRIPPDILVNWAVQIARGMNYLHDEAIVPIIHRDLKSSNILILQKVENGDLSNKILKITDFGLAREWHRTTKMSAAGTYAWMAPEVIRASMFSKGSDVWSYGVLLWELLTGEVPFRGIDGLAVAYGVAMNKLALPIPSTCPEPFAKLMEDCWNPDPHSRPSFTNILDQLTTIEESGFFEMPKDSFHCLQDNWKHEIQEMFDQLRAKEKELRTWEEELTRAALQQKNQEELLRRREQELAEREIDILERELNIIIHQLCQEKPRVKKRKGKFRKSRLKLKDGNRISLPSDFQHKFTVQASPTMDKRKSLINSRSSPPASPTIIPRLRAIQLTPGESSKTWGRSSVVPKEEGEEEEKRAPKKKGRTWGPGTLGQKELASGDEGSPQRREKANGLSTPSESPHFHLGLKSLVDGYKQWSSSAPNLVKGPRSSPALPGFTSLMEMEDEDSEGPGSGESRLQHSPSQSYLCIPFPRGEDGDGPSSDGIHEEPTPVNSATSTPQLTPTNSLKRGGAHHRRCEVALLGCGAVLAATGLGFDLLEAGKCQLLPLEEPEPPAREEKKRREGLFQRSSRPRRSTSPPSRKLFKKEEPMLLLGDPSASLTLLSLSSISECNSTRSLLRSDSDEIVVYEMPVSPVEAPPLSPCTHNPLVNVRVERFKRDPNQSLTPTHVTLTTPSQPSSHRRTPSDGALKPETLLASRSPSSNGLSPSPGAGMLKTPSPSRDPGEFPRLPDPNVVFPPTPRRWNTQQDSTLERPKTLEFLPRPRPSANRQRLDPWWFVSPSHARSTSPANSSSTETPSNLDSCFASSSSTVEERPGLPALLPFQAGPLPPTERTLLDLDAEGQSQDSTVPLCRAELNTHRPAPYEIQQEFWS
Chain of VEGFR2 (P35968 20-1356): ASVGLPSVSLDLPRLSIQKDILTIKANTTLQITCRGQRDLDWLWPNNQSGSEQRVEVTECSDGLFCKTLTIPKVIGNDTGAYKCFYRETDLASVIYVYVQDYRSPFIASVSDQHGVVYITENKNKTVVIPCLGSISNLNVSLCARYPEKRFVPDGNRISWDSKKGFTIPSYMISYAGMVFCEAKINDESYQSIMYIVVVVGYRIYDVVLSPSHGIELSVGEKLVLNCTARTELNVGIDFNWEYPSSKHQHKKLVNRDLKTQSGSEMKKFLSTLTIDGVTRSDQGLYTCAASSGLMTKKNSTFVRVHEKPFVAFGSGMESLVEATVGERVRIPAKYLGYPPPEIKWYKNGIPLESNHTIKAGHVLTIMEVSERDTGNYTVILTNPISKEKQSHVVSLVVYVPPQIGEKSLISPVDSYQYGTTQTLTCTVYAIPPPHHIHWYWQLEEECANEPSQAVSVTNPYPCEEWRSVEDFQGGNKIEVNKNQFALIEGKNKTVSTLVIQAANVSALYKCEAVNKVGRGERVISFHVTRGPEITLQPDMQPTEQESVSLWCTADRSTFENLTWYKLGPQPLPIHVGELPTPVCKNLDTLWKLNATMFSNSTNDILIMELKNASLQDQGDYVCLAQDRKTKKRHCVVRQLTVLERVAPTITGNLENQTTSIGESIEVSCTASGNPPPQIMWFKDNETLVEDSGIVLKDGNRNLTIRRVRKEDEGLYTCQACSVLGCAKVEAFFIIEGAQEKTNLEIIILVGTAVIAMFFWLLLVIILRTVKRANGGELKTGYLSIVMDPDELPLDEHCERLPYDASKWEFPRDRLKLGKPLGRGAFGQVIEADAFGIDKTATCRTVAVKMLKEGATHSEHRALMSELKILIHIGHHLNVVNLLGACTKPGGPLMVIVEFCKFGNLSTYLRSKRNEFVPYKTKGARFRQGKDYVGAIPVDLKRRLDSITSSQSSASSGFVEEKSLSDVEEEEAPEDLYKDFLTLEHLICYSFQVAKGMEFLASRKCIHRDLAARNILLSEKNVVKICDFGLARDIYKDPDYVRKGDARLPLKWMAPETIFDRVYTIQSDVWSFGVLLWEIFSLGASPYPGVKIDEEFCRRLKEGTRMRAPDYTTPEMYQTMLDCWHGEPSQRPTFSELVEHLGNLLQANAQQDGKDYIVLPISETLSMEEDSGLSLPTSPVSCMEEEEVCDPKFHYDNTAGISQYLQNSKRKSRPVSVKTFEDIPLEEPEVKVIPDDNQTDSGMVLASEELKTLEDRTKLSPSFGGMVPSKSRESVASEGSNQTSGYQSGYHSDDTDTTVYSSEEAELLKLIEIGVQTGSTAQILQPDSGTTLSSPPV
Chain of PDGFRA (P16234 24-1089): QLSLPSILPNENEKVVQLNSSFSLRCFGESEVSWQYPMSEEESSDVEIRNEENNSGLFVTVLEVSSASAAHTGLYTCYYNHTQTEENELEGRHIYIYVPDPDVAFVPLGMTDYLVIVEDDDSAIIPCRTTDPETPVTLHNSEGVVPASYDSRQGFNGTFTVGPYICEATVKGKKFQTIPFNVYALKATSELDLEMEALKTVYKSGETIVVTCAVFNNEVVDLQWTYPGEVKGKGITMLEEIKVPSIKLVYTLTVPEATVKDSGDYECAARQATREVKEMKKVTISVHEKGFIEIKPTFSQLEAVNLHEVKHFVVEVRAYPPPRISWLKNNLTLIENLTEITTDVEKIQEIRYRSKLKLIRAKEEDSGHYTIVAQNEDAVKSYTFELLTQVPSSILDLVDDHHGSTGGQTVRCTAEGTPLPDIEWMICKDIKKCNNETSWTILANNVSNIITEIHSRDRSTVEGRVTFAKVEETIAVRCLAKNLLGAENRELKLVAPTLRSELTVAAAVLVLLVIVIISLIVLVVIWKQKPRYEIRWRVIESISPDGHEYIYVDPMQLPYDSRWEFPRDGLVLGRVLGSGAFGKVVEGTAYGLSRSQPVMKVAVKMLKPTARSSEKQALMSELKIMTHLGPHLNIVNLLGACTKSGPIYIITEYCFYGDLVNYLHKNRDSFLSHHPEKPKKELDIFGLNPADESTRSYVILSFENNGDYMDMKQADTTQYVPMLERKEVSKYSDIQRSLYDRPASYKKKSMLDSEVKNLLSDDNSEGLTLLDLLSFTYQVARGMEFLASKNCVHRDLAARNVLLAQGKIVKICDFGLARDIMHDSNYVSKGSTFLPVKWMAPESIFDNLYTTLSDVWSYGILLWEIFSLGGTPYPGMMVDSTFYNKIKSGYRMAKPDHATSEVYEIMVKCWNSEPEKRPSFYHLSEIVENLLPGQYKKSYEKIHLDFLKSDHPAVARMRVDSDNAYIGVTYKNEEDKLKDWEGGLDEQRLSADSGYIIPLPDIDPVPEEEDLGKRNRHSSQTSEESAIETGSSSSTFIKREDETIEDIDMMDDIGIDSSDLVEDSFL
Chain of PAK2 (Q13177 whole entry): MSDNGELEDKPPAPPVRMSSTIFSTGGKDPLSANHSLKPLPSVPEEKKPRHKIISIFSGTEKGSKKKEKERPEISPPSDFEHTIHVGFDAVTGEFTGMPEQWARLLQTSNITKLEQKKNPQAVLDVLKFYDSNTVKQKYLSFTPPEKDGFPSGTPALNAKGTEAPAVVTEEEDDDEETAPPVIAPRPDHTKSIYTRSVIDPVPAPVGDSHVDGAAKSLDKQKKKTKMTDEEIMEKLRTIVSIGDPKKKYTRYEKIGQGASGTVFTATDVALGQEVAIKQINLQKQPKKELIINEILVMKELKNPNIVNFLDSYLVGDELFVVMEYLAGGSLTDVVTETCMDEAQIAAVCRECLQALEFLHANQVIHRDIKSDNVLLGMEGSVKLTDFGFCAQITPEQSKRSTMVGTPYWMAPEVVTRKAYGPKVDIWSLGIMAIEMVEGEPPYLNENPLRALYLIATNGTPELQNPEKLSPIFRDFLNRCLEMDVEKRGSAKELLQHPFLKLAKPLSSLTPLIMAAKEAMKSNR
Chain of LKB1 (Q15831 whole entry): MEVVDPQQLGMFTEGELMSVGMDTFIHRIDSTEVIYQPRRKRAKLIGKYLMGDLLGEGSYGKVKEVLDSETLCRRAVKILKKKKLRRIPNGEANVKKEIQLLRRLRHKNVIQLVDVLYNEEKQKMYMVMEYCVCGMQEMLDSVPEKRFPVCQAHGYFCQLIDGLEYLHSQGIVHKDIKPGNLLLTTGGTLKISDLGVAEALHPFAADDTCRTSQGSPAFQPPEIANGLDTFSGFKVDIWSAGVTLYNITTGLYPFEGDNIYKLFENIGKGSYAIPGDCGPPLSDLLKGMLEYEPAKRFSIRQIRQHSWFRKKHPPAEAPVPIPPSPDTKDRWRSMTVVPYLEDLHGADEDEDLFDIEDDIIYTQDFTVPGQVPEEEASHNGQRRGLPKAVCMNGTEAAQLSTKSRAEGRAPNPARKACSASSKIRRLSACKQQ
Chain of PIM2 (Q9P1W9 whole entry): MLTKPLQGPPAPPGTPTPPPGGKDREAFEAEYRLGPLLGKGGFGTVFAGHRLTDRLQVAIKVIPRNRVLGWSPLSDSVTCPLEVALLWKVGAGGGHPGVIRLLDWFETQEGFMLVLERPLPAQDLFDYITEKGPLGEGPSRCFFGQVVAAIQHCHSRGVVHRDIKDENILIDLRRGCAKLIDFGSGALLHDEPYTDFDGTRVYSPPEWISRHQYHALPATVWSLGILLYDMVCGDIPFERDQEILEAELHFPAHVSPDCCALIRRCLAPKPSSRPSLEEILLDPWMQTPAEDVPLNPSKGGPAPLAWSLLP

Q: Which “Rotarod latency to fall” value (mice; 30 mg/kg IP, 1 h after injection, cutoff 300 s, individual animals) does the source give for O=C([O-])C1CCC2(CC1)CC(Nc1ncnc3[nH]c4c(F)cccc4c13)C2.[Na+] (stereo not shown) [Compound 77, [Na+].[O-]C(=O)C1CCC2(CC(C2)NC=3N=CN=C4NC=5C(F)=CC=CC5C34)CC1] here?
A: 300 s and 281 s and 295 s and 269 s

Q: And the “motor impairment in the rotarod test” value (mice; mouse, in vivo)?
A: did not induce motor impairment

Q: And the “Uninjured mice, individual animal values (Supplementary Figure 10A)” value (mice; uninjured mice, IP 30 mg/kg, single animals, 30 mg/kg)?
A: 116 and 71.5 and 93.5 and 86.1 and 110.4

Q: With O=C(O)C1CCC2(CC1)CC(Nc1ncnc3[nH]c4c(F)cccc4c13)C2 (stereo not shown) [Compound 74, OC(=O)C1CCC2(CC(C2)NC=3N=CN=C4NC=5C(F)=CC=CC5C34)CC1] as the molecule, how does the remaining activity at 10 µM (IGF1R) read?
A: 100%

Q: What about the remaining activity at 10 µM (KIT) of the same molecule?
A: 75%

Q: What about the remaining activity at 10 µM (KIT(D816V)) of the same molecule?
A: 76%

Q: What about the remaining activity at 10 µM (KIT(V559D,T670I)) of the same molecule?
A: 56%

Q: What about the remaining activity at 10 µM (LKB1) of the same molecule?
A: 97%

Q: And the remaining activity at 10 µM (MAP3K4)?
A: 92%

Q: And the remaining activity at 10 µM (MAPKAPK2)?
A: 98%

Q: What about the remaining activity at 10 µM (MARK3) of the same molecule?
A: 81%

Q: What about the remaining activity at 10 µM (MEK1) of the same molecule?
A: 24%

Q: What about the remaining activity at 10 µM (MEK2) of the same molecule?
A: 23%

Q: And the remaining activity at 10 µM (MKNK1)?
A: 72%

Q: And the remaining activity at 10 µM (MKNK2)?
A: 62%

Q: What about the remaining activity at 10 µM (MLK1) of the same molecule?
A: 45%

Q: What about the remaining activity at 10 µM (PAK1) of the same molecule?
A: 76%

Q: And the remaining activity at 10 µM (PAK2)?
A: 66%

Q: What about the remaining activity at 10 µM (PAK4) of the same molecule?
A: 65%

Q: And the remaining activity at 10 µM (PCTK1)?
A: 94%

Q: What about the remaining activity at 10 µM (PDGFRA) of the same molecule?
A: 35%

Q: And the remaining activity at 10 µM (PDGFRB)?
A: 60%

Q: And the remaining activity at 10 µM (PIK3C2B)?
A: 74%

Q: And the remaining activity at 10 µM (PIM2)?
A: 100%

Q: What about the remaining activity at 10 µM (PIM3) of the same molecule?
A: 53%

Q: And the remaining activity at 10 µM (PKAC-alpha)?
A: 99%

Q: And the remaining activity at 10 µM (PLK1)?
A: 100%

Q: What about the remaining activity at 10 µM (PLK3) of the same molecule?
A: 97%

Q: And the remaining activity at 10 µM (PLK4)?
A: 34%

Q: What about the remaining activity at 10 µM (RAF1) of the same molecule?
A: 98%

Q: And the remaining activity at 10 µM (RET)?
A: 5.9%

Q: And the remaining activity at 10 µM (RIOK2)?
A: 54%

Q: And the remaining activity at 10 µM (VEGFR2)?
A: 31%

Q: What about the remaining activity at 10 µM (p38-beta) of the same molecule?
A: 79%
